Data from US8642656B2, “Calixarene-based peptide conformation mimetics, methods of use, and methods of making” (priority 2004, dated 2014).

Tests used:
[1] = Hematocrit levels, study with B16 tumors in immune competent mice; type: in vivo; conditions: vehicle 51±1.4
Method: As an indirect measurement of general toxicity, body weights of mice were monitored twice weekly, using a digital balance (Ohaus Florham, N.J.). To determine hematocrit levels, blood samples were extracted by tail vein bleedings one day after terminating treatment, and blood was collected in heparinized micro-hematocrit capillary lubes (Fisher Pittsburgh, Pa.). Samples were spun down for 10 minutes in a micro-hematocrit centrifuge (Clay-Adams; NY), and the amount of hematocrit was determined using an international microcapillary reader (IEC; Needham, Mass.).

HUVEC = assay: EC migration, wound healing assay; type: cell-based, human; conditions: 25 μM
Method: EC migration was measured in the wound healing assay. HUVEC were cultured in triplicate on a 1-mg/ml fibronectin coat in a 24-well tissue culture plate. Cells were grown for 3 days until confluence. When confluent, a wound was made in the well, using a blunt glass pipette. The medium was replaced with medium containing 10 ng/ml bFGF with or without 25 μM compound and at 0, 2, 4, 6, and 8 hours, the wound width was measured at four different predefined places. Photographs were made using an inverted microscope and a Contax 167 MT 35 mm camera.

| Molecule | Hematocrit levels ±SD [1] | effect on EC migration, wound assay (in words) (HUVEC) |
| --- | --- | --- |
| CN(C)CCNC(=O)COc1c2cccc1Cc1cccc(c1OCC(=O)NCCN(C)C)Cc1cccc(c1OCC(=O)NCCN(C)C)Cc1cccc(c1OCC(=O)NCCN(C)C)C2 [Compound 40] | 53±0 percentage red blood cells |  |
| 5,11,17,23-Tetra-tert-butyl-25,27-bis(2-guanidinoethoxy)-26,28-dihydroxy calix[4]arene trifluoroacetic acid salt [Compound 27] | 49±1.4 percentage red blood cells | as effective as βpep-25 and more effective than 40 |
